Experimental data reported in patent US12390437B2, “Itaconic acid derivatives and uses thereof intreating an inflammatory disease or a disease associated with an undesirable immune response” (Sitryx Therapeutics Limited, priority 2019, dated 2025).

tested on: not listed separately; test: Mouse pharmacokinetic study, intravenous dosing; format: in vivo; conditions: male, C57BL/6, mouse, iv; plasma, 10 mg/kg i.v., time 0.05 h; read-out: Parent compound concentration following intravenous administration
Procedure, shortened: (§1)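 Oral arm: 100 mg/kg gavage in 5% DMSO with 0.5% HPMC/0.1% Tween 80, blood from 5 min to 24 h. Intravenous arm: 10 mg/kg tail-vein injection in 10% DMSO with HP-β-CD, blood from 3 min to 8 h. Male C57BL/6 mice; LC-MS/MS on plasma.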

concentration at 0.05 h	SMILES
6690 ng/mL	C=C(CC(=O)O[C@@H](C)CCCCCC)C(=O)OCc1nn[nH]n1 [Example 164, (S)-1-(2H-tetrazol-5-yl)methyl 4-octan-2-yl 2-methylenesuccinate]

same assay, conditions: male, C57BL/6, mouse, iv; plasma, 10 mg/kg i.v., time 0.133 h; read-out: Parent compound concentration following intravenous administration

concentration at 0.133 h	SMILES
1250 ng/mL	C=C(CC(=O)O[C@@H](C)CCCCCC)C(=O)OCc1nn[nH]n1 [Example 164, (S)-1-(2H-tetrazol-5-yl)methyl 4-octan-2-yl 2-methylenesuccinate]

same assay, conditions: male, C57BL/6, mouse, iv; plasma, 10 mg/kg i.v., time 0.25 h; read-out: Parent compound concentration following intravenous administration

concentration at 0.25 h	SMILES
534 ng/mL	C=C(CC(=O)O[C@@H](C)CCCCCC)C(=O)OCc1nn[nH]n1 [Example 164, (S)-1-(2H-tetrazol-5-yl)methyl 4-octan-2-yl 2-methylenesuccinate]

same assay, conditions: male, C57BL/6, mouse, iv; plasma, 10 mg/kg i.v., time 0.5 h; read-out: Parent compound concentration following intravenous administration

concentration at 0.5 h	SMILES
211 ng/mL	C=C(CC(=O)O[C@@H](C)CCCCCC)C(=O)OCc1nn[nH]n1 [Example 164, (S)-1-(2H-tetrazol-5-yl)methyl 4-octan-2-yl 2-methylenesuccinate]

same assay, conditions: male, C57BL/6, mouse, iv; plasma, 10 mg/kg i.v., time 1 h; read-out: Parent compound concentration following intravenous administration

concentration at 1 h	SMILES
18 ng/mL	C=C(CC(=O)O[C@@H](C)CCCCCC)C(=O)OCc1nn[nH]n1 [Example 164, (S)-1-(2H-tetrazol-5-yl)methyl 4-octan-2-yl 2-methylenesuccinate]

same assay, conditions: male, C57BL/6, mouse, iv; plasma, 10 mg/kg i.v., time 2 h; read-out: Parent compound concentration following intravenous administration

concentration at 2 h	SMILES
< 4 ng/mL	C=C(CC(=O)O[C@@H](C)CCCCCC)C(=O)OCc1nn[nH]n1 [Example 164, (S)-1-(2H-tetrazol-5-yl)methyl 4-octan-2-yl 2-methylenesuccinate]

same assay, conditions: male, C57BL/6, mouse, iv; plasma, 10 mg/kg i.v., time 4 h; read-out: Parent compound concentration following intravenous administration

concentration at 4 h	SMILES
< 4 ng/mL	C=C(CC(=O)O[C@@H](C)CCCCCC)C(=O)OCc1nn[nH]n1 [Example 164, (S)-1-(2H-tetrazol-5-yl)methyl 4-octan-2-yl 2-methylenesuccinate]

same assay, conditions: male, C57BL/6, mouse, iv; plasma, 10 mg/kg i.v., time 6 h; read-out: Parent compound concentration following intravenous administration

concentration at 6 h	SMILES
< 4 ng/mL	C=C(CC(=O)O[C@@H](C)CCCCCC)C(=O)OCc1nn[nH]n1 [Example 164, (S)-1-(2H-tetrazol-5-yl)methyl 4-octan-2-yl 2-methylenesuccinate]

same assay, conditions: male, C57BL/6, mouse, iv; plasma, 10 mg/kg i.v., time 8 h; read-out: Parent compound concentration following intravenous administration

concentration at 8 h	SMILES
< 4 ng/mL	C=C(CC(=O)O[C@@H](C)CCCCCC)C(=O)OCc1nn[nH]n1 [Example 164, (S)-1-(2H-tetrazol-5-yl)methyl 4-octan-2-yl 2-methylenesuccinate]

tested on: hepatocytes; test: Hepatocyte stability assay (human); format: in vitro ADME; conditions: 10 μM compound, 0.5×10^6 cells/mL, 60 minutes
Procedure, shortened: (§2)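 Cryopreserved hepatocytes (viability >70%), 0.5×10^6 cells/mL in Leibovitz buffer, incubated at 37 °C with 10 μM compound (0.1% DMSO), duplicates; buffer-only incubations as negative control. Samples at 0-60 min quenched in acetonitrile, parent measured by LC-MS/MS; half-life and Clint (μL min^−1 10^−6 cells) from ln % remaining versus time slope.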

CIint (μL min^−1 10^−6 cells)	SMILES
42 μL min^−1 10^−6 cells	C=C(CC(=O)O[C@@H](C)CCCCCC)C(=O)OCc1nn[nH]n1 [Example 164, (S)-1-(2H-tetrazol-5-yl)methyl 4-octan-2-yl 2-methylenesuccinate]

tested on: not listed separately; test: Hepatocyte stability assay (human); format: in vitro ADME; conditions: cryopreserved hepatocytes, 10 μM compound, 0.5×10^6 cells/mL, 60 minutes, read-out: T½
Procedure, shortened: as §2

half-life at 10 μM	SMILES
33 min	C=C(CC(=O)O[C@@H](C)CCCCCC)C(=O)OCc1nn[nH]n1 [Example 164, (S)-1-(2H-tetrazol-5-yl)methyl 4-octan-2-yl 2-methylenesuccinate]

tested on: not listed separately; test: Mouse pharmacokinetic study, oral administration; format: in vivo; conditions: male, C57BL/6, mouse, plasma, po, 100 mg/kg, plasma, male C57BL/6 mice, oral gavage 100 mg/kg, 0.083 h; read-out: Parent compound concentrations following oral administration, Time 0.083 h
Procedure, shortened: as §1

concentration at 0.083 h	SMILES
3790 ng/mL	C=C(CC(=O)O[C@@H](C)CCCCCC)C(=O)OCc1nn[nH]n1 [Example 164, (S)-1-(2H-tetrazol-5-yl)methyl 4-octan-2-yl 2-methylenesuccinate]

same assay, conditions: male, C57BL/6, mouse, plasma, po, 100 mg/kg, plasma, male C57BL/6 mice, oral gavage 100 mg/kg, 0.25 h; read-out: Parent compound concentrations following oral administration, Time 0.25 h

concentration at 0.25 h	SMILES
2970 ng/mL	C=C(CC(=O)O[C@@H](C)CCCCCC)C(=O)OCc1nn[nH]n1 [Example 164, (S)-1-(2H-tetrazol-5-yl)methyl 4-octan-2-yl 2-methylenesuccinate]

same assay, conditions: male, C57BL/6, mouse, plasma, po, 100 mg/kg, plasma, male C57BL/6 mice, oral gavage 100 mg/kg, 0.5 h; read-out: Parent compound concentrations following oral administration, Time 0.5 h

concentration at 0.5 h	SMILES
1860 ng/mL	C=C(CC(=O)O[C@@H](C)CCCCCC)C(=O)OCc1nn[nH]n1 [Example 164, (S)-1-(2H-tetrazol-5-yl)methyl 4-octan-2-yl 2-methylenesuccinate]

same assay, conditions: male, C57BL/6, mouse, plasma, po, 100 mg/kg, plasma, male C57BL/6 mice, oral gavage 100 mg/kg, 1 h; read-out: Parent compound concentrations following oral administration, Time 1 h

concentration at 1 h	SMILES
968 ng/mL	C=C(CC(=O)O[C@@H](C)CCCCCC)C(=O)OCc1nn[nH]n1 [Example 164, (S)-1-(2H-tetrazol-5-yl)methyl 4-octan-2-yl 2-methylenesuccinate]

same assay, conditions: male, C57BL/6, mouse, plasma, po, 100 mg/kg, plasma, male C57BL/6 mice, oral gavage 100 mg/kg, 2 h; read-out: Parent compound concentrations following oral administration, Time 2 h

concentration at 2 h	SMILES
585 ng/mL	C=C(CC(=O)O[C@@H](C)CCCCCC)C(=O)OCc1nn[nH]n1 [Example 164, (S)-1-(2H-tetrazol-5-yl)methyl 4-octan-2-yl 2-methylenesuccinate]

same assay, conditions: male, C57BL/6, mouse, plasma, po, 100 mg/kg, plasma, male C57BL/6 mice, oral gavage 100 mg/kg, 4 h; read-out: Parent compound concentrations following oral administration, Time 4 h

concentration at 4 h	SMILES
381 ng/mL	C=C(CC(=O)O[C@@H](C)CCCCCC)C(=O)OCc1nn[nH]n1 [Example 164, (S)-1-(2H-tetrazol-5-yl)methyl 4-octan-2-yl 2-methylenesuccinate]

same assay, conditions: male, C57BL/6, mouse, plasma, po, 100 mg/kg, plasma, male C57BL/6 mice, oral gavage 100 mg/kg, 6 h; read-out: Parent compound concentrations following oral administration, Time 6 h

concentration at 6 h	SMILES
135 ng/mL	C=C(CC(=O)O[C@@H](C)CCCCCC)C(=O)OCc1nn[nH]n1 [Example 164, (S)-1-(2H-tetrazol-5-yl)methyl 4-octan-2-yl 2-methylenesuccinate]

same assay, conditions: male, C57BL/6, mouse, plasma, po, 100 mg/kg, plasma, male C57BL/6 mice, oral gavage 100 mg/kg, 8 h; read-out: Parent compound concentrations following oral administration, Time 8 h

concentration at 8 h	SMILES
181 ng/mL	C=C(CC(=O)O[C@@H](C)CCCCCC)C(=O)OCc1nn[nH]n1 [Example 164, (S)-1-(2H-tetrazol-5-yl)methyl 4-octan-2-yl 2-methylenesuccinate]

same assay, conditions: male, C57BL/6, mouse, plasma, po, 100 mg/kg, plasma, male C57BL/6 mice, oral gavage 100 mg/kg, 24 h; read-out: Parent compound concentrations following oral administration, Time 24 h

concentration at 24 h	SMILES
< 4 ng/mL	C=C(CC(=O)O[C@@H](C)CCCCCC)C(=O)OCc1nn[nH]n1 [Example 164, (S)-1-(2H-tetrazol-5-yl)methyl 4-octan-2-yl 2-methylenesuccinate]
